*1 amine or outer side, *2 acyl side, *3 side chain or, on linkers, in order; H or OH if unused. Where a SMILES comes first, the peptide text is derived from it. The star is where a group is joined. X1 = O=C(CCCC[C@@H]1SC[C@@H]2NC(=O)N[C@@H]21)NCCCOCCOCCOCCCN*; Suc = O=C(CCC(=O)[*:2])[*:1]
Columns and labels:
[1] = test system: APBA3-2; test: Holdup assay, APBA3-2; assay type: binding, human
[2] = molecular target: INADL-7 (Homo sapiens, UniProt Q8NI35); test: Holdup assay, INADL-7; assay type: binding
[3] = test system: GRIP1-3; test: Holdup assay, GRIP1-3; assay type: binding, human
[4] = molecular target: INADL-8 (Homo sapiens, UniProt Q8NI35); test: Holdup assay, INADL-8; assay type: binding
[5] = molecular target: T1, DLG1 PDZ 2 (Homo sapiens, UniProt Q12959); test: Holdup assay, DLG1-2; assay type: binding; settings: for BI: DLG1-2
T1 construct: made in house; host or cells: E. coli
Procedure: (§1) The holdup assay was performed on a Tecan freedom Evo200 robot with 384-well plates in singlicate for the three 11-mer PTEN variants and the 13-mer PTEN peptide as described in [31, 32]. Briefly, prior to interaction assay, 2.5 μL of streptavidin resin was saturated in each well with 20 μL of biotinylated PBM peptides (42 μM) and then washed twice with an excess of free biotin, while the reference resin was incubated only with biotin. Right before the holdup experiment, the PDZ library was spiked with an internal standard of lysozyme. Then, the biotin- or PBM-saturated resin was incubated, each in a distinct well of a 384-well plate, with complete cell lysates diluted so that the concentration of the tag-PDZ present in the crude extract is adjusted at 4 μM. After a sufficient time to reach complex equilibrium (15 min.), a fast and mild filtration step is performed and the tag-PDZ concentrations were measured by capillary electrophoresis instrument (LabChip GXII, PerkinElmer, Massachusets, USA). Standard markers were used to convert migration time into molecular weight on the LabChip software and inappropriate molecular weight markers were corrected or excluded.
(§2) For filtered data, the BI was extracted with the following equation (Eq 1) that estimates the depleted fraction after superimposition of the sample and reference electropherograms: BI=Iref−Ilig/Iref (1) where Iref and Ilig are the intensities of the tag-PDZ peaks measured, for each PDZ domain/PBM peptide interaction pair, in the biotin reference and the PBM electropherograms, respectively.
(§3) BIs were transformed into dissociation constants (KD) using the following formula: KD=([PDZtot]−BI·[PDZtot])·([PBMtot]−BI·[PDZtot])/BI·[PDZtot] (2) where [PDZtot] and [PBMtot] correspond to the total concentrations of the PDZ domain (usually around 4 μM) and the PBM peptide used during the assay. Since the PBMtot concentration in the resin during the holdup assay parameter may differ from one peptide to another and remains unknown, it is impossible to directly convert BI values into KD constants. We systematically determined the KD constants for a subset of PDZ/PBM pairs by competitive FP. […] For each PBM, the average peptide concentration was calculated after outlier rejection based on the absolute distances from the median as compared to three times the standard deviation (3σ rule), with never more than 2 values rejected.

[6] = test system: GRIP1-5; test: Holdup assay, GRIP1-5; assay type: binding, human
[7] = test system: DLG3-1; test: Holdup assay, DLG3-1; assay type: binding, human
[8] = molecular target: T2, MAGI1 PDZ 3 (Homo sapiens, UniProt Q96QZ7); test: Holdup assay, MAGI1-3; assay type: binding; settings: for BI: MAGI1-3
T2 construct: made in house; host or cells: E. coli
Procedure: as §1, §2, §3

[9] = test system: ARHGAP21-1; test: Holdup assay, ARHGAP21-1; assay type: binding, human
[10] = test system: LDB3-1; test: Holdup assay, LDB3-1; assay type: binding, human
[11] = molecular target: GORASP1-1 (Homo sapiens, UniProt Q9BQQ3); test: Holdup assay, GORASP1-1; assay type: binding
[12] = molecular target: DLG4-2 (Homo sapiens, UniProt P78352); test: Holdup assay, DLG4-2; assay type: binding
[13] = test system: FRMPD2-1; test: Holdup assay, FRMPD2-1; assay type: binding, human
[14] = test system: CARD11-1; test: Holdup assay, CARD11-1; assay type: binding, human
[15] = molecular target: T3, MAST3 PDZ 1 (Homo sapiens, UniProt O60307); test: Holdup assay, MAST3-1; assay type: binding; settings: for BI: MAST3-1
T3 construct: made in house; host or cells: E. coli
T3 sequence (O60307 950-1038 limits assumed): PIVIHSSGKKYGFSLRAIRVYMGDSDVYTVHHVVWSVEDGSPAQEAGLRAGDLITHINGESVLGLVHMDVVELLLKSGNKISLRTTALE
Procedure: as §1, §2, §3

[16] = test system: GRIP1-7; test: Holdup assay, GRIP1-7; assay type: binding, human
[17] = molecular target: T4, SNTB2 PDZ 1 (Homo sapiens, UniProt Q13425); test: Holdup assay, SNTB2-1; assay type: binding; settings: for BI: PDZ domain SNTB2-1
T4 construct: made in house; host or cells: E. coli
T4 sequence (Q13425 115-198 limits assumed): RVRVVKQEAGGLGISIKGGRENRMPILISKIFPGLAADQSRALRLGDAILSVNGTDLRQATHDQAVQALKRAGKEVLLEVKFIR
Procedure: as §1, §2, §3

[18] = test system: DLG5-1; test: Holdup assay, DLG5-1; assay type: binding, human
[19] = test system: CASK-1; test: Holdup assay, CASK-1; assay type: binding, human
[20] = test system: DLG5-2; test: Holdup assay, DLG5-2; assay type: binding, human
[21] = molecular target: GRASP-1 (Homo sapiens, UniProt Q7Z6J2); test: Holdup assay, GRASP-1; assay type: binding; settings: for BI: GRASP-1
[22] = test system: ARHGAP23-1; test: Holdup assay, ARHGAP23-1; assay type: binding, human
[23] = test system: INADL-2; test: Holdup assay, INADL-2; assay type: binding, human
[24] = test system: LNX2-4; test: Holdup assay, LNX2-4; assay type: binding, human
[25] = molecular target: DLG1-1 (Homo sapiens, UniProt Q12959); test: Holdup assay, DLG1-1; assay type: binding; settings: DLG1-1
[26] = molecular target: MAGI2-6 (Homo sapiens, UniProt Q86UL8); test: Holdup assay, MAGI2-6; assay type: binding
MAGI2-6, sequence (Q86UL8 1147-1229): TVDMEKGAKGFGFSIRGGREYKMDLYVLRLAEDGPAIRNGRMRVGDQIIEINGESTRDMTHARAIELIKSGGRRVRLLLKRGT

GORASP1-1, sequence (Q9BQQ3 2-440): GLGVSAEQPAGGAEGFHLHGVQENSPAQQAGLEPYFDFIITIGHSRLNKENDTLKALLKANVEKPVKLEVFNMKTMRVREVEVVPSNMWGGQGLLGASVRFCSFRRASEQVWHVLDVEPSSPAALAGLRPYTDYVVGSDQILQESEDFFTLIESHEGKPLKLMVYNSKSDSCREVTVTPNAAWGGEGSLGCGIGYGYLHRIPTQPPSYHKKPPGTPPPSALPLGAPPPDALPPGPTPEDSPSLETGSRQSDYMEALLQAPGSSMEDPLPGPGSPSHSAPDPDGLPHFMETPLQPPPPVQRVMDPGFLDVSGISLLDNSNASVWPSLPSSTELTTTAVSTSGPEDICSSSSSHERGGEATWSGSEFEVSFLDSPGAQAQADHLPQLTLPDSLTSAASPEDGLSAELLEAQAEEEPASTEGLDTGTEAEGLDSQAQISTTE
INADL-7, sequence (Q8NI35 whole entry): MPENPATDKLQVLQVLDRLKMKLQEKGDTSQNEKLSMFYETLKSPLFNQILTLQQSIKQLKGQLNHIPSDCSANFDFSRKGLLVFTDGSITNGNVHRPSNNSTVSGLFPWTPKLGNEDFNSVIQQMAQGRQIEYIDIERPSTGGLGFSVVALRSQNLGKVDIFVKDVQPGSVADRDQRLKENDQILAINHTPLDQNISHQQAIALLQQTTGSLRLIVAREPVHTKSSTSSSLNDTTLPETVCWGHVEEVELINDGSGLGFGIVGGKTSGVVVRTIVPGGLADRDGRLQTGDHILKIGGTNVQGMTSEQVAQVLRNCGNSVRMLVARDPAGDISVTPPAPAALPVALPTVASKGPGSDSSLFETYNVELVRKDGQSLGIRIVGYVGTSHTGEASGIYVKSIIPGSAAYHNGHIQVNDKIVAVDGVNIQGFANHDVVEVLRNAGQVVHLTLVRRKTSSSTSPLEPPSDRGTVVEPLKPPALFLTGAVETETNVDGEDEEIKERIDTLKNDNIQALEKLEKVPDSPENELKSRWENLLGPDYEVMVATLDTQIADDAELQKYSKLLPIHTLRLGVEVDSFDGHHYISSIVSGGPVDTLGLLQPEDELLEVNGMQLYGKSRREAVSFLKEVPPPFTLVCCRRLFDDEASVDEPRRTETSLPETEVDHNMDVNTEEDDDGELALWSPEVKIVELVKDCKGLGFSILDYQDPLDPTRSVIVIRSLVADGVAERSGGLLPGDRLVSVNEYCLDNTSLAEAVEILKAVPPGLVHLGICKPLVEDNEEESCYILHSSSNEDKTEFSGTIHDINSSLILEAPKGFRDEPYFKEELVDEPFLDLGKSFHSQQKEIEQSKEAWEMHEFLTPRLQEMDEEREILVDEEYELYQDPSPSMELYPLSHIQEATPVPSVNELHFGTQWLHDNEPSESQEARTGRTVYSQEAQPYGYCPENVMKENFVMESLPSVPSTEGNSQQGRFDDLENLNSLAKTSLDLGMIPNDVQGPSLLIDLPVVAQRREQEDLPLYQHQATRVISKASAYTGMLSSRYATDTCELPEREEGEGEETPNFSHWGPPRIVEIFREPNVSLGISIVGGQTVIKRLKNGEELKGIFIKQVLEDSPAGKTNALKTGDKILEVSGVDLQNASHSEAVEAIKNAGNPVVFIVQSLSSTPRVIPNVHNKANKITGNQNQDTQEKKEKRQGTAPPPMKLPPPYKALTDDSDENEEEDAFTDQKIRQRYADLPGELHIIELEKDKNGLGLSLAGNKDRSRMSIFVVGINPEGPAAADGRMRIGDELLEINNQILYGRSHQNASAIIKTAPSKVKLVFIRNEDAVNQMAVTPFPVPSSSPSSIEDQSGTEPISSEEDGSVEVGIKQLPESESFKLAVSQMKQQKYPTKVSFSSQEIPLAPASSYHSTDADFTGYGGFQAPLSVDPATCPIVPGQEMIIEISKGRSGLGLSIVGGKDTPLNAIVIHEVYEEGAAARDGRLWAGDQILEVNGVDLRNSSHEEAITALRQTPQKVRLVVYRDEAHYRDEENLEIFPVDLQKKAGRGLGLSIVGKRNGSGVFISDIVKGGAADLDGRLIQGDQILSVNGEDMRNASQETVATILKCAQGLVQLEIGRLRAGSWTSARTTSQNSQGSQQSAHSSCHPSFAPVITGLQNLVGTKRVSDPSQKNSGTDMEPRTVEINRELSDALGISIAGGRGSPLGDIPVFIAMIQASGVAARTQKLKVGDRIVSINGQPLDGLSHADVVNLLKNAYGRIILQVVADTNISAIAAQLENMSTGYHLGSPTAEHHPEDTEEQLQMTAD
INADL-8, sequence (Q8NI35 whole entry): as above
GRASP-1, sequence (Q7Z6J2 100-189): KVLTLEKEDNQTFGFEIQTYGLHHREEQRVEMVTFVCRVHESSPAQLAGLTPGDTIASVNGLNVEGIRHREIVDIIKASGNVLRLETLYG
T2 sequence (Q96QZ7 643-721 limits assumed): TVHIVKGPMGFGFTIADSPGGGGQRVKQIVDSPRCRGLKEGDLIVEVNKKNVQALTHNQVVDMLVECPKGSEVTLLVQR
DLG4-2, sequence (P78352 160-246): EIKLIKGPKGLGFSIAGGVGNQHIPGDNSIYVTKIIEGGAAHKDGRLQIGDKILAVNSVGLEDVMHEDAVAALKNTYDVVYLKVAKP

In the case of `CC[C@H](C)[C@H](NC(=O)[C@H](CCC(N)=O)NC(=O)[C@@H](NC(=O)[C@H](Cc1c[nH]cn1)NC(=O)[C@H](CCC(N)=O)NC(=O)[C@H](CC(=O)O)NC(=O)[C@H](CCC(=O)O)NC(=O)[C@H](CC(=O)O)NC(=O)CCC(=O)NCCCOCCOCCOCCCNC(=O)CCCC[C@@H]1SC[C@@H]2NC(=O)N[C@@H]21)[C@@H](C)O)C(=O)N[C@H](C(=O)N[C@@H](CCCCN)C(=O)N[C@H](C(=O)O)C(C)C)[C@@H](C)O` [PTEN_11], the BI [1] is reported as 0.086, the LogKD [1] is reported as 3.519 and the BI [2] is reported as 0.136. The BI [3] was -0.015, the LogKD [3] was 3.519 and the BI [4] was 0.388. For the same compound, the Kd [4] was 51.2 µM, the BI [5] was 0.09 and the BI [6] was 0.021. For the same compound, the LogKD [6] was 3.519, the BI [7] was 0 and the LogKD [7] was 3.519. It also gave a Kd [8] of 29.6 µM, a BI [8] of 0.519 and a BI [9] of -0.072. It also gave a LogKD [9] of 3.519, a BI [10] of -0.027 and a LogKD [10] of 3.519. It also gave a BI [11] of 0.037, a LogKD [11] of 3.519 and a BI [12] of 0.124. For the same compound, the BI [13] was -0.044, the LogKD [13] was 3.519 and the BI [14] was -0.016. The LogKD [14] was 3.519, the BI [15] was 0.122 and the BI [16] was -0.03. The LogKD [16] was 3.519, the BI [17] was 0.023 and the BI [18] was -0.042. The LogKD [18] was 3.519, the BI [19] was -0.049 and the LogKD [19] was 3.519. The BI [20] was 0.001, the LogKD [20] was 3.519 and the Kd [21] was 33.1 µM. For the same compound, the BI [21] was 0.492, the BI [22] was -0.109 and the LogKD [22] was 3.519. For the same compound, the BI [23] was 0.007, the LogKD [23] was 3.519 and the BI [24] was -0.124. It also gave a LogKD [24] of 3.519, a BI [25] of 0.109 and a BI [26] of 0.176.
Compound `CC[C@H](C)[C@H](NC(=O)[C@H](CCC(N)=O)NC(=O)[C@@H](NC(=O)[C@H](Cc1c[nH]cn1)NC(=O)[C@H](CCC(N)=O)NC(=O)[C@H](CC(=O)O)NC(=O)[C@H](CCC(=O)O)NC(=O)[C@H](CC(=O)O)NC(=O)CCC(=O)NCCCOCCOCCOCCCNC(=O)CCCC[C@@H]1SC[C@@H]2NC(=O)N[C@@H]21)[C@@H](C)O)C(=O)N[C@H](C(=O)N[C@@H](CCCCNC(C)=O)C(=O)N[C@H](C(=O)O)C(C)C)[C@@H](C)O` [PTEN_Ac] has a BI [1] of 0.024, a LogKD [1] of 3.605 and a BI [2] of 0.306. It also gave a Kd [2] of 60.7 µM, a BI [3] of 0.02 and a LogKD [3] of 3.605. The BI [4] was 0.509, the Kd [4] was 25 µM and the Kd [5] was 35.6 µM. The BI [5] was 0.425, the BI [6] was -0.054 and the LogKD [6] was 3.605. It also gave a BI [7] of 0.013, a LogKD [7] of 3.605 and a Kd [8] of 10 µM. It also gave a BI [8] of 0.715, a BI [9] of 0.012 and a LogKD [9] of 3.605. The BI [10] was -0.04, the LogKD [10] was 3.605 and the BI [11] was 0.151. It also gave a BI [13] of -0.083, a LogKD [13] of 3.605 and a BI [14] of -0.116. For the same compound, the LogKD [14] was 3.605, the Kd [15] was 84.7 µM and the BI [15] was 0.242. The BI [16] was -0.071, the LogKD [16] was 3.605 and the BI [18] was -0.005. The LogKD [18] was 3.605, the BI [19] was -0.102 and the LogKD [19] was 3.605. It also gave a BI [20] of 0.018, a LogKD [20] of 3.605 and a Kd [21] of 8.02 µM. The BI [21] was 0.757, the BI [22] was -0.108 and the LogKD [22] was 3.605. It also gave a BI [24] of 0.013, a LogKD [24] of 3.605 and a BI [25] of 0.168. For the same compound, the BI [26] was 0.469 and the Kd [26] was 29.6 µM.
`CC[C@H](C)[C@H](NC(=O)[C@H](CCC(N)=O)NC(=O)[C@@H](NC(=O)[C@H](Cc1c[nH]cn1)NC(=O)[C@H](CCC(N)=O)NC(=O)[C@H](CC(=O)O)NC(=O)[C@H](CCC(=O)O)NC(=O)[C@H](CC(=O)O)NC(=O)[C@H](Cc1ccccc1)NC(=O)[C@@H]1CCCN1C(=O)CCC(=O)NCCCOCCOCCOCCCNC(=O)CCCC[C@@H]1SC[C@@H]2NC(=O)N[C@@H]21)[C@@H](C)O)C(=O)N[C@H](C(=O)N[C@@H](CCCCN)C(=O)N[C@H](C(=O)O)C(C)C)[C@@H](C)O` [PTEN_13] ({X1-Suc}-PFDEDQHTQITKV-OH) was tested, and the BI [1] was 0.046, the BI [2] was 0.07 and the LogKD [2] was 3.826. The BI [3] was -0.002, the BI [4] was 0.247 and the Kd [4] was 48.8 µM. The BI [5] was 0.168, the BI [6] was -0.033 and the BI [7] was -0.03. For the same compound, the Kd [8] was 10.4 µM, the BI [8] was 0.584 and the BI [9] was 0.028. The BI [10] was -0.021, the BI [11] was 0.076 and the LogKD [11] was 3.826. The BI [12] was -0.004, the LogKD [12] was 3.826 and the BI [13] was -0.07. For the same compound, the BI [14] was -0.006, the BI [15] was -0.161 and the BI [16] was 0.015. It also gave a Kd [17] of 64 µM, a BI [17] of 0.202 and a BI [18] of -0.048. It also gave a BI [19] of -0.07, a BI [20] of -0.092 and a Kd [21] of 12.4 µM. For the same compound, the BI [21] was 0.544, the BI [22] was -0.062 and the BI [23] was 0.043. It also gave a BI [24] of 0.093, a BI [25] of 0.011 and a LogKD [25] of 3.826. For the same compound, the BI [26] was 0.236 and the Kd [26] was 52 µM.

Reference: PMC7774954, “Interactomic affinity profiling by holdup assay: Acetylation and distal residues impact the PDZome-binding specificity of PTEN phosphatase” (PLoS ONE, 2020)
